What was measured:
human stromal cells = experiment: PDGF-stimulated proliferation of human stromal cells; assay type: cell-based; conditions: Homo sapiens, 1 h; 50 ng/ml PDGF-BB; drug one hour prior; FIGS. 15 and 16; read-out: IC50, stromal cell proliferation
Description: (§1) This assay is an in vitro model for restenosis and treatment of atherosclerosis and coronary artery disease. Stromal cells were starved in serum-free media for one day and then stimulated with 50 ng/ml PDGF-BB. The drugs were added at the indicated concentrations one hour prior to PDGF stimulation. Tritiated thymidine was added for one day at the time of PDGF stimulation and the cells were harvested and counted by liquid scintillation counting 24 hrs later.
Another assay for measuring activity of the inventive compounds involves determining PDGF (platelet derived growth factor) proliferative response using human-derived stromal cells. […] Two to three days later, the stromal cells are starved in serum-free media. Twenty four hours later, the cells are treated with a stimulating agent, such as PDGF-AA, PDGF-BB or basic FGF (fibroblast growth factor) with or without IL-1α or TNF, and tritiated thymidine. Cell proliferation is determined by liquid scintillation counting.
as §1

[1] = system: LPS-mediated release of TNF from monocytes in whole blood; experiment: Ex vivo human TNF model (LPS-stimulated whole blood); assay type: cell-based; conditions: lower doses, FIG. 19
Source text: (§2) FIG. 19 illustrates a comparative experiment comparing CT1508, CT1524, CT1534 and CT2501 in an ex vivo human TNF model described herein. This assay is a predictive model for treatment and prevention of septic shock and sepsis syndrome. This model adds LPS to whole blood (normal human volunteers) to trigger a dose-dependent synthesis and extracellular release of TNF according to Desch et al. (Lymphokine Res. 8:141, 1989). The ex vivo model examines whether LPS-mediated release of TNF from monocytes in whole blood can be blocked by an inventive compound.
as §2, with “This example” for “FIG. 19”

[2] = system: CMV promoter activity in transformed (adenovirus) cells; experiment: CMV promoter assay (gene transcription and translation; cytotoxicity in transformed cells); assay type: cell-based
Summary of the method: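 Reporter assay in adenovirus-transformed cells, reading CMV promoter-driven gene transcription and translation; activity reflects cytotoxic inhibition of cellular protein synthesis machinery.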

mast cell degranulation = experiment: Serotonin release assay (inhibition of mast cell degranulation); assay type: cell-based; conditions: 50 μM; for RELEASE-SPONT / AVERAGE % RELEASE / inhibition at 50 µM: Table 4; for RELEASE-SPONT: average corrected for spontaneous release; for AVERAGE % RELEASE: average of duplicates; for inhibition at 50 µM: Mast cell
Summary of the method: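 Cultured mast cells loaded with 3H-serotonin and sensitized with anti-DNP IgE for 18 h at 37 °C, then triggered with 40 ng/ml DNP-BSA for 45 min with compound in PIPES isotonic buffer pH 7.1.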

[3] = system: transformed cells (Ras 3T3) and normal 3T3 cells; experiment: Cytotoxicity in transformed cells (Ras 3T3) versus normal 3T3 cells; assay type: cell-based; conditions: LD50 comparison; FIG. 17
Description: Each inventive compound is investigated for cytotoxicity to determine appropriate doses for biological activity assays and to prevent cytotoxic reactions in in vitro assays when characterizing activity. Cells (e.g., NIH-3T3, Ras transformed 3T3 cells, malignant melanoma LD2 cells, etc.) are added to microtiter plates and drug is added about two days after plating. Cell viability is determined using a fluorescent viability stain (e.g., 2',7'-bis-(2-carboroxyethyl)-5-(and -6)-carboxyfluorescein acetoxymethyl ester, BCECF excitation 488 nm and emission 525 nm) 24, 48 or 72 hours after addition of the drug.
This example illustrates a comparison of cytotoxicity determinations for CT1534 and CT1539 in transformed cells (Ras 3T3) and in normal 3T3 cells to determine the in vitro LD50 value in both cell types and to look for differential cytotoxicity effects between the cell types.

[4] = system: second messenger pathway enzymes in P388 cells (murine monocyte/macrophage line); experiment: Changes in lipid mass (DAG, PA) in P388 cells after signal stimulation; assay type: cell-based; conditions: 30 second time point, FIGS. 20-22
Description: (§3) FIGS. 20-22 illustrate the effect of one inventive compound (CT1534) on the substates and products of the present second messenger pathway. Various concentrations of CT1534 were incubated with P388 cells (a murine monocyte/macrophage line) and changes in lipid mass determined at 0 time, 30 seconds and 60 seconds after signal stimulation. FIGS. 20-22 show the 30 second time point for two DAG peaks and a PA peak.
as §3, with “This example illustrates” for “FIGS. 20-22 illustrate”

murine thymocyte = experiment: Murine thymocyte stimulated by ConA and IL-2 (T cell immune suppression); assay type: cell-based; conditions: FIGS. 8 and 9
Description: A thymocyte costimulator assay is conducted to evaluate the inventive compounds to inhibit activation and proliferation of thymocytes caused by stimulation with Con A and interleukin-1 (IL-1), or […]. Thymuses are obtained from mice (e.g., female Balb/C mice) and the thymuses are removed and dissociated into culture media (e.g., RPMI 1640 without serum supplementation). The dissociated thymus tissue and cell suspension is transferred to centrifuge tubes and allowed to settle, washed with HBSS and resuspended in serum-supplemented culture media (e.g., RPMI 1640 with 10% fetal calf serum). Any contaminating red cells are lysed, and viable cells are resuspended and counted. Thymocytes are plated (e.g., 96-well plates at a density of 2×10^5 cells/well) and a stimulating agent, such as Con A, IL-1 (e.g., IL-1α) or IL-2 is added to the well. The cells are incubated for 4 days at 37° C. On the fourth day, the cells are pulsed with tritiated thymidine and cell proliferation determined. Inventive compounds are added at the time of stimulating agent addition.
A third assay measures an ability of an inventive compound to inhibit IL-2-induced proliferation of murine thymocytes. Thymus glands are obtained from 4-6 week old mice and plated as a single cell suspension into flat bottomed wells in RPMI 1640 medium supplemented with 10% fetal calf serum. The inventive compounds are added to appropriate wells and the cells are incubated for 1-2 hrs. Concanavilin A (ConA, 0.25 mg/ml) and […] (20 ng/ml) are added and the plates are incubated for 4 days. Cell proliferation is determined as above.
FIG. 8 compares T cell immune suppression data of thirteen inventive compounds by comparing their IC50 values in a murine thymocyte stimulated by ConA and IL-2 in vitro model.

[5] = system: PBMC (peripheral blood mononuclear cells); experiment: Two-way mixed lymphocyte reaction (MLR), proliferation of PBMC to allogeneic stimulation; assay type: cell-based, human; conditions: FIGS. 1 and 2
Source text: Various in vitro assays can be used to measure effects of the inventive compounds to module immune activity and have antitumor activity using a variety of cellular types. For example, a mixed lymphocyte reaction (MLR) provides a valuable screening tool to determine biological activity of each inventive compound. In the MLR, PBMCs (peripheral blood mononuclear cells) are obtained by drawing whole blood from healthy volunteers in a heparinized container and diluted with an equal volume of hanks balanced salt solution (HBSS). This mixture is layered on a […] density gradient, such as a Ficoll-Hypaque® gradient (specific gravity 1.08), and centrifuged at 1000×g for 25 minutes at room temperature or cooler. PBMC are obtained from a band at a plasma-Ficoll interface, separated and washed at least twice in a saline solution, such as HBSS. Contaminating red cells are lysed, such as by ACK lysis for 10 min at 37° C., and the PBMCs are washed twice in HBSS. The pellet of purified PBMCs is resuspended in complete medium, such as RPMI 1640 plus 20% human inactivated serum. Proliferative response of PBMC to allogeneic stimulation is determined in a two-way MLR performed in a 96-well microliter plate. Briefly, approximately 10^5 test purified PBMC cells in […] complete medium are co-cultured with approximately 10^5 autologous (control culture) or allogeneic (stimulated culture) PBMC cells, wherein the allogeneic cells are from HLA disparate individuals. Varying doses of compounds (drug) are added at the time of addition of cells to the microtiter plate. The cultures are incubated for 6 days at 37° C. in a 5% CO2 atmosphere. At the conclusion of the incubation tritiated thymidine is added (for example, […] of 40 to 60 Ci/mmole) and proliferation determined by liquid scintillation counting.
This example illustrates a mixed lymphocyte reaction assay of inventive compounds by showing the IC50 value of each compound in this assay and a dose response of several compounds to illustrate an IC50 determination.

[6] = system: PBMC in mixed lymphocyte assay culture; experiment: Percent viable cells in mixed lymphocyte assay culture after six days; assay type: cell-based, human
[7] = system: murine lymph node cell (T cell) proliferation; experiment: Murine lymph node cell proliferation stimulated by antigen; assay type: cell-based; conditions: Mus musculus, 2 h, drug two hours prior, FIG. 11
Source text: A second immune suppression assay measures a T cell component to the immune reaction. Lymph nodes contain a mixture of cells including T cells, B cells and macrophages. Although the proliferating cells in this assay are T cells, the response is also dependent upon an antigen presenting cell such as a macrophage as well as an elaboration of various immunoregulatory cytokines. Murine T cells will proliferate in vitro in response to a soluble o protein antigen if they are first primed with the antigen in vivo. In vivo priming involves emulsifying the antigen (chicken ovalbumin or OVA) in complete Freunds adjuvant and injecting […] of OVA into both hind footpads of adult Balb/c mice. Fourteen days later the draining lymph nodes (popliteal) are removed and a single cell suspension is prepared in RPMI 1640 supplemented with 10% fetal calf serum. The lymph node cells (200,000) are plated into flat-bottom wells and OVA ([…]) and/or drug is added to appropriate wells and incubated for 5 days. Proliferation is determined and IC50's calculated as above.
This example illustrates the effects of four inventive compounds on inhibition of murine lymph node cell proliferation stimulated by antigen. This assays uses murine T cells that proliferate in vitro in response to a soluble protein antigen that is first used to prime the T cells in vivo. […]

Row | Compound | IC50 (human stromal cells) [µM] | inhibition of LPS-mediated TNF release [1] | IC50 [2] [µM] | activity in serotonin release assay (mast cell degranulation) | RELEASE-SPONT (mast cell degranulation) [%] | AVERAGE % RELEASE (mast cell degranulation) [%] | inhibition at 50 µM (mast cell degranulation) [%] | differential cytotoxicity, transformed vs normal cells [3] | plateau concentration for inhibition of second messenger signaling ([4]; DAG and PA peaks) | inhibition of second messenger signaling enzymes [4] | T cell immune suppressing activity (murine thymocyte) | mixed lymphocyte reaction activity [5] | cytotoxicity in mixed lymphocyte assay culture ([6]; 100 μM, six days of culture) | therapeutic window ([6]; cytotoxicity at 100 μM vs MLR IC50) | IC50 [7] [µM]
1 | CC/C=C\CCCCCn1c(=O)c2c(ncn2C)n(C)c1=O [CT1508, 1-(6-cis-nonenyl)-3,7-dimethylxanthine] | < 2 | the most effective agent | 75 | increases the activity | 3.38 | 19.94 | 57.9 | – | – | – | – | – | – | – | –
2 | C=CCCCCCn1c(=O)c2c(ncn2C)n(C)c1=O [CT1534, 1-(6-heptenyl)-3,7-dimethylxanthine] | – | – | > 500 | – | 5.47 | 22.02 | 31.9 | much more cytotoxic for the transformed cell than the normal cell | around 10 μM | inhibits the enzymes involved in second messenger signaling to an inflammatory stimulus in a dose-response fashion | – | – | – | – | –
3 | C=CCCCCCCCCn1c(=O)c2c(ncn2C)n(C)c1=O [CT1563, 1-(9-Decenyl)-3,7-dimethylxanthine] | – | – | 50 | – | 7.43 | 23.98 | 7.39 | – | – | – | potent immune suppressing activity | showed activity within dose ranges achievable in vivo | the most cytotoxic at 100 μM | significant therapeutic window | ~15

— patent US5521315A, “Olefin substituted long chain compounds” (priority 1993, dated 1996)
